The record followed here is ChEMBL document CHEMBL1146896, “Synthesis and monoamine transporter affinity of 2beta-carbomethoxy-3beta-(4'-p-substituted phenyl)-piperidine analogs of cocaine” (Bioorg Med Chem Lett, 2006).

As a reminder, the Ki is a measure of affinity in units of concentration, obtained from inhibition or displacement. Read a low Ki as a stronger hold on the target.

Assay [1] concerns the target Monoamine transporters; serotonin & dopamine (Rattus norvegicus) (UniProt P31652+P23977). Put plainly: Selectivity for SERT over DAT. Format: protein assay.
Assay [2] addresses Monoamine transporters; Norepinephrine & serotonin (Rattus norvegicus) (UniProt P31652+Q9WTR4). Put plainly: Selectivity for SERT over NET. Format: protein assay.
For assay [3], the target named is Norepinephrine transporter (Rattus norvegicus, UniProt Q9WTR4). Nature of the assay: Displacement of [3H]nisoxetine from NET in rat cerebral cortex. Type of assay: tissue-based. (Loss of bound radioactivity is the signal in a displacement assay; it reports binding, not function.)
The target in assay [4] is Sodium-dependent dopamine transporter (Rattus norvegicus, UniProt P23977). Put plainly: Displacement of [3H]beta-CIT from DAT in rat caudate homogenate.
For assay [5], the target named is Sodium-dependent serotonin transporter (Rattus norvegicus, UniProt P31652). Nature of the assay: Displacement of [3H]cyanoimipramine from SERT in rat cerebral cortex homogenate. Format: tissue-based.
Sodium-dependent serotonin transporter, sequence (P31652 whole entry): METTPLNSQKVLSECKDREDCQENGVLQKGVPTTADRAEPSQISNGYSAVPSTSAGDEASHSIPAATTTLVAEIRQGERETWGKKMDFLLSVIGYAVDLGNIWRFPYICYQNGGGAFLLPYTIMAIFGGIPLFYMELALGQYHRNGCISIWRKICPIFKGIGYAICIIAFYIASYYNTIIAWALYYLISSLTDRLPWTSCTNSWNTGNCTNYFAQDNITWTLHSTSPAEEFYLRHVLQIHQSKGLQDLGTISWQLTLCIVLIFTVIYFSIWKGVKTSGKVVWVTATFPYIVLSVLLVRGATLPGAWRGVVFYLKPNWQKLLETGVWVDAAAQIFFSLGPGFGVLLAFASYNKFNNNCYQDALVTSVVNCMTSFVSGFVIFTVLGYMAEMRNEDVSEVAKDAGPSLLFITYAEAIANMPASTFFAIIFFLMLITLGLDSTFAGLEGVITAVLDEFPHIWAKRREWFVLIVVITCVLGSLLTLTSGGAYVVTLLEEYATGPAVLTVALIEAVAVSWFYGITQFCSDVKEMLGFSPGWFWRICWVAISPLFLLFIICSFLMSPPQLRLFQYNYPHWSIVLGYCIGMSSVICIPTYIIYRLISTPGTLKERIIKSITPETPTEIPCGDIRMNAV

Norepinephrine transporter, sequence (Q9WTR4 whole entry): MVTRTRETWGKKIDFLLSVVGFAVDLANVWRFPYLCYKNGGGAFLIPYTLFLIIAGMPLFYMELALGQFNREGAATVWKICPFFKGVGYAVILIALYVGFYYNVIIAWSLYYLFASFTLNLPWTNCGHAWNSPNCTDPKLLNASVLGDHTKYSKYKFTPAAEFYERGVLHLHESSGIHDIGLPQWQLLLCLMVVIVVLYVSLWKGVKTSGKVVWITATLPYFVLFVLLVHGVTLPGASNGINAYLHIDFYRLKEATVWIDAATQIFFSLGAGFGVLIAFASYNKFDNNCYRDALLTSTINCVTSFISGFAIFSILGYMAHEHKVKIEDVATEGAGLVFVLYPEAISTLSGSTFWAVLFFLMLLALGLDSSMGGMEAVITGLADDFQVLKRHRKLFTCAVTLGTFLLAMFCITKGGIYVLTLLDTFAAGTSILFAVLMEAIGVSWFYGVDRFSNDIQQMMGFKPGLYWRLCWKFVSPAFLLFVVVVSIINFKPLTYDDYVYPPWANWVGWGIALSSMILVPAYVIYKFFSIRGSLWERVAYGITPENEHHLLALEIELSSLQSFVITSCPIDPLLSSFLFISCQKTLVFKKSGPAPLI
Sodium-dependent dopamine transporter, sequence (P23977 whole entry): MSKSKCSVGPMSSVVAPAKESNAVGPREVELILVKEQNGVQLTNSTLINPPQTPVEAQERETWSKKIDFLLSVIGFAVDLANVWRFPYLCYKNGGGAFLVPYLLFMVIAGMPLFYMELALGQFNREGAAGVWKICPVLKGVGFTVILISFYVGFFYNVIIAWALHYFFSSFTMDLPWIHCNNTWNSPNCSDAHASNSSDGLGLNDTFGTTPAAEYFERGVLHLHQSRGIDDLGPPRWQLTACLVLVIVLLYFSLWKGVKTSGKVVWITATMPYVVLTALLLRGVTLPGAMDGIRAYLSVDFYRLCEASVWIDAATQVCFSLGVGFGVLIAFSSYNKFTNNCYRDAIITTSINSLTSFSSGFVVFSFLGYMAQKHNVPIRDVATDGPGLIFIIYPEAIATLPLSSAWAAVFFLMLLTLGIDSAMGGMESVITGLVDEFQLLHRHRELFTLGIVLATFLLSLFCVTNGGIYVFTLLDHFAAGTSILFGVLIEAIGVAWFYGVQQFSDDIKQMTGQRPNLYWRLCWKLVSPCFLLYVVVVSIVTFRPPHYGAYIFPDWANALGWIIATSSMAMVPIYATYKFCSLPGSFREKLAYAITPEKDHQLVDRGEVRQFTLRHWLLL
Monoamine transporters; serotonin & dopamine (Rattus norvegicus), sequence (P23977 whole entry, looked up): as the sequence (P23977 whole entry) above
Monoamine transporters; serotonin & dopamine (Rattus norvegicus), sequence (P31652 whole entry, looked up): as the sequence (P31652 whole entry) above

`COC(=O)[C@@H]1CN(C)CC[C@@H]1c1ccc(/C=C\I)cc1`: the Ratio Ki in assay [1] is 15.6; in assay [2] it was over 3800. In addition, the Ki in assay [3] is over 30 µM; in assay [4] it was 0.123 µM; in assay [5], 0.0079 µM.

Turning to `COC(=O)[C@@H]1CN(C)CC[C@@H]1c1ccc(-c2cccs2)cc1`, the Ratio Ki was over 55 in assay [1] and over 551 in assay [2]. Further, the Ki in assay [3] was over 50 µM; in assay [4], at least 5 µM; in assay [5], 0.0908 µM.

Take `COC(=O)[C@@H]1CN(C)CC[C@@H]1c1ccc(-c2nccs2)cc1` [listing 1 of 2 here]: the inhibitory constant (Ki) in assay [3] was over 50 µM; in assay [5] it was over 10 µM.

As for `COC(=O)[C@@H]1CN(C)CC[C@@H]1c1ccc(-c2ccco2)cc1`, the Ratio Ki in assay [1] is 11.1; in assay [2], over 2700. Also, the Ki in assay [3] is over 50 µM; in assay [4] it was 0.205 µM; in assay [5] it was 0.0185 µM.

`COC(=O)[C@@H]1CN(C)CC[C@@H]1c1ccc(I)cc1`: the Ratio Ki came to 11.2 in assay [1] and 59.9 in assay [2]. Moreover, the inhibitory constant (Ki) in assay [4] was determined as 0.195 µM; in assay [5] it was 0.167 µM.

For `COC(=O)[C@@H]1CN(C)CC[C@@H]1c1ccc(C=O)cc1`, the Ratio Ki turned out to be 5.8 in assay [1] and 17.3 in assay [2]. Moreover, the Ki was over 30 µM in assay [3], over 10 µM in assay [4] and 1.73 µM in assay [5].

Consider `COC(=O)[C@@H]1CN(C)CC[C@@H]1c1ccc(-c2nccs2)cc1` (racemic) [listing 1 of 2 here], for which the Ratio Ki came to 2 in assay [1] and 4 in assay [2].

In the case of `COC(=O)[C@@H]1CN(C)CC[C@@H]1c1ccc(-c2nccs2)cc1` [listing 2 of 2 here], the Ratio Ki in assay [1] was determined as 1; in assay [2], 5.

As to `COC(=O)[C@@H]1CN(C)CC[C@@H]1c1ccc(-c2nccs2)cc1` (racemic) [listing 2 of 2 here], the inhibition constant (Ki) was over 20 µM in assay [3], over 10 µM in assay [4] and over 5 µM in assay [5].

`COC(=O)[C@@H]1CN(C)CC[C@@H]1c1ccc(-c2ccsc2)cc1`: the results for the Ratio Ki in assay [1] and in assay [2] were 188 and over 3140, respectively. Further, the Ki in assay [3] was over 10 µM; in assay [4], 0.598 µM; in assay [5] it was 0.0318 µM.

`COC(=O)[C@H]1[C@@H](c2ccc(I)cc2)C[C@@H]2CC[C@H]1N2C`: the Ratio Ki in assay [1] amounted to 2.1; in assay [2], 6.1. Besides, the Ki came out at 0.0028 µM in assay [3] and 0.00096 µM in assay [4].
